Key:
bedstraw = experiment: Test B pre/postemergence bedstraw; assay type: in vivo, Galium aparine
Outline: (§1)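 Herbicidal effect was estimated by eye on a ten-point control scale after plants spent twelve to sixteen days in a greenhouse following soil or foliar treatment. Foliar sprays targeted plants at one to four leaves; all doses were formulated in a non-phytotoxic solvent with surfactant.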

surinam grass = experiment: Test B pre/postemergence surinam grass; assay type: in vivo, Brachiaria decumbens
Outline: as §1

corn = experiment: Test B pre/postemergence corn; assay type: in vivo, Zea mays
Outline: as §1

crabgrass = experiment: Test B pre/postemergence crabgrass; assay type: in vivo, Digitaria sanguinalis
Outline: as §1

[1] = Postemergence, Rate 125 g/ha, scale 0 to 10, 0 is no effect, 10 is complete control
[2] = Postemergence, Rate 250 g/ha, scale 0 to 10, 0 is no effect, 10 is complete control
[3] = Postemergence, Rate 500 g/ha, scale of 0 to 10 where 0 is no effect and 10 is complete control
[4] = Rate 62 g/ha, Postemergence, scale of 0 to 10 where 0 is no effect and 10 is complete control
[5] = Preemergence, Rate 62 g/ha, scale 0 to 10 (0 no effect, 10 complete control)
[6] = Preemergence, Rate 125 g/ha, scale of 0 to 10 where 0 is no effect and 10 is complete control
[7] = Preemergence, Rate 250 g/ha, scale 0 to 10, 0 is no effect, 10 is complete control
[8] = Preemergence, Rate 500 g/ha, scale 0 to 10, 0 is no effect, 10 is complete control
[9] = Postemergence, Rate 250 g/ha, scale 0 to 10
[10] = Rate 62 g/ha, Postemergence, scale 0 to 10 (0 no effect, 10 complete control)
[11] = Rate 125 g/ha, Postemergence, scale 0 to 10, 0 is no effect, 10 is complete control
[12] = Postemergence, Rate 250 g/ha, scale 0 to 10, 0 no effect, 10 complete control
[13] = Preemergence, Rate 62 g/ha, scale of 0 to 10 where 0 is no effect and 10 is complete control

Row | SMILES | Bedstraw plant response rating (bedstraw; [3]) | B. signalgrass plant response rating (surinam grass; [3]) | Plant response rating, B. signalgrass (surinam grass; [5]) | Plant response rating, B. signalgrass (surinam grass; [6]) | Corn plant response rating (corn; [3]) | Plant response rating, Corn (corn; [5]) | Plant response rating, Corn (corn; [6]) | Corn plant response rating (corn; [7]) | Corn plant response rating (corn; [8]) | Crabgrass plant response rating (crabgrass; [3]) | Plant response rating, Crabgrass (crabgrass; [6]) | Crabgrass plant response rating (crabgrass; [7]) | Crabgrass plant response rating (crabgrass; [8]) | B. signalgrass plant response rating (surinam grass; [12]) | B. signalgrass plant response rating (surinam grass; [7]) | B. signalgrass plant response rating (surinam grass; [8]) | B. signalgrass plant response rating (surinam grass; [10]) | B. signalgrass plant response rating (surinam grass; [11]) | Corn plant response rating (corn; [9]) | Corn plant response rating (corn; [10]) | also measured
1 | CC(C)N(C(=O)n1oc(=O)n(CC2(C)COC2)c1=O)c1ccccc1 [Compound 420] | 5 | 7 | 2 | 2 | 0 | 0 | 0 | 0 | 2 | 8 | 9 | 9 | 10 |  |  |  |  |  |  |  | Plant response rating, Bedstraw (bedstraw; [1]): 0; Plant response rating, Bedstraw (bedstraw; [2]): 3; Bedstraw plant response rating (bedstraw; [4]): 0; Plant response rating, B. signalgrass (surinam grass; [1]): 2; Plant response rating, B. signalgrass (surinam grass; [2]): 5; B. signalgrass plant response rating (surinam grass; Preemergence, Rate 250 g/ha, scale of 0 to 10 where 0 is no effect and 10 is complete control): 6; B. signalgrass plant response rating (surinam grass; Preemergence, Rate 500 g/ha, scale of 0 to 10 where 0 is no effect and 10 is complete control): 8; B. signalgrass plant response rating (surinam grass; [4]): 0; Plant response rating, Corn (corn; [1]): 0; Plant response rating, Corn (corn; [2]): 0; Corn plant response rating (corn; [4]): 0; Plant response rating, Crabgrass (crabgrass; [1]): 2; Plant response rating, Crabgrass (crabgrass; [2]): 8; Plant response rating, Crabgrass (crabgrass; [5]): 7; Crabgrass plant response rating (crabgrass; [4]): 2
2 | CC(C)N(C(=O)n1oc(=O)n(C(C)C#N)c1=O)c1ccccc1 (stereo not shown) [Compound 435] | 0 | 3 | 0 | 0 | 0 | 0 | 0 | 0 | 0 | 8 | 2 | 6 | 9 | 1 | 0 | 1 | 0 | 0 | 0 | 0 | Bedstraw plant response rating (bedstraw; [9]): 0; Bedstraw plant response rating (bedstraw; [10]): 0; Bedstraw plant response rating (bedstraw; [11]): 0; Corn plant response rating (corn; [11]): 0; Crabgrass plant response rating (crabgrass; [9]): 7; Crabgrass plant response rating (crabgrass; [10]): 0; Crabgrass plant response rating (crabgrass; [11]): 2
3 | CCc1nc(C)c(C(C)n2c(=O)on(C(=O)N(c3ccc(F)cc3)C(C)C)c2=O)s1 (stereo not shown) [Compound 449] |  | 4 |  | 0 | 0 |  | 0 | 0 | 0 | 2 | 3 | 9 | 9 | 0 | 0 | 0 | 0 | 0 | 0 | 0 | Plant response rating, Bedstraw (bedstraw; [13]): 0; Plant response rating, Bedstraw (bedstraw; [6]): 0; Bedstraw plant response rating (bedstraw; [7]): 0; Bedstraw plant response rating (bedstraw; [8]): 4; Plant response rating, B. signalgrass (surinam grass; [13]): 0; Plant response rating, Corn (corn; [13]): 0; Corn plant response rating (corn; [11]): 0; Crabgrass plant response rating (crabgrass; [9]): 2; Plant response rating, Crabgrass (crabgrass; [13]): 0; Crabgrass plant response rating (crabgrass; [10]): 0

— US6737383B1, “Herbicidal oxadiazolidines” (priority 1999, dated 2004)
